Experimental data: patent publication US4975450A, “Antidiarrheal” (Slovenska Akademia Vied, priority 1987, dated 1990)
Like-named read-outs stand apart in the source and are kept apart here.

Assays:
[1] = in vivo; conditions: mouse
[2] = in vivo; conditions: rabbit
[3] = test system: Salmonella typhimurium; test: mutation tests and reparative tests, Salmonella typhimurium
[4] = test system: intestinal passage of carbo adsorbens; test: intestinal passage of carbo adsorbens, mice; assay type: in vivo; conditions: for intestinal passage of carbo adsorbens, complete intestine: atropin 5 mg/kg, reference 75.0 ± 1.9
Description: (§1) The active substance in 20 mg dose per one kg, if administered 30 minutes before administering castor oil, has extended the latent period up to the beginning of the diarrhea from 91.2±4.4 minutes to 127.3±6.3 minutes. […] (Table 1).
(§2) TABLE 1 - Influence of pharmaceutical substances on the intestinal passage of carbo adsorbens (100% is the complete intestine length): […]

[5] = in vivo; conditions: rat
[6] = test system: calves; test: reduction of diarrhea occurrence in new-born calves; assay type: in vivo
Description: With the referenoe individuals (n=66) diarrhea has occurred with about 80% thereof. The medicament of the invention, if administered for 2 to 3 days in a 10 mg daily dose, reduced the diarrhea ocourrence by 40-50%, and with a 20 mg d aily dose during 3 days of administration even less than 4% (P<0.01). In the control group of calves to which no medicament was administered, a multiple mortality has been observed.

[7] = test system: mice; test: castor oil-provoked diarrhea in mice; assay type: in vivo; conditions: 20 mg/kg, 30 minutes before castor oil; control 91.2±4.4 minutes
[8] = test system: intestinal passage of carbo adsorbens; test: intestinal passage of carbo adsorbens, rats; assay type: in vivo; conditions: for intestinal passage of carbo adsorbens, small intestines: 100% is the complete intestine length, substance 20 mg/kg, atropin 5 mg/kg, reference 58.7 ± 2.5
Description: as §1, §2

[9] = test system: dogs (beagle); test: chronic six months toxicity study on dogs; assay type: in vivo
[10] = V. Nosalova et al 1986; cited from earlier work
[11] = test system: adenylate cyclase; conditions: Hynie et al 1986; cited from earlier work
[12] = test system: rats; test: one month toxicity study of rats; assay type: in vivo
[13] = cited from earlier work
[14] = retention of stomach content; assay type: in vivo; conditions: active substance 10-20 mg/kg; atropin dose not stated
[15] = in vivo; conditions: guinea pig
[16] = test system: Escherichia coli
[17] = test system: rat; conditions: in vivo
[18] = test system: mice; test: teratological and embryotoxic experiments on mice
[19] = test system: mice; conditions: mouse, in vivo
[20] = test system: mice; conditions: mouse, in vivo; remark: listed apart in the source
[21] = 100% is the complete intestine length, substance 20 mg/kg

CCCCCOc1cccc(NC(=O)O[C@@H]2CCCC[C@H]2N2CCCC2)c1 (relative stereo) [substance of the formula, (±)-trans-2(1-pyrrolidinyl) cyclohexylester of 3-(n)-pentyloxycarbanilic acid]
LD50 ([1]; ip): 56 mg/kg
LD50 ([1]; iv): 10.3 mg/kg
LD50 ([1]; po): 790 mg/kg
LD50 ([1]; sc): 122 mg/kg
LD50 ([2]; ip): 46.5 mg/kg
LD50 ([2]; iv): 2.92 mg/kg
mutation changes in reparative tests [3]: have not been observed
qualitative or quantitative mutations [3]: have not been observed
influence on passage of intestine content (in words) [4]: does not significantly influence the passage of intestine content
intestinal passage of carbo adsorbens, complete intestine [4, 21]: 80.3 ± 1.2%
intestinal passage of carbo adsorbens, small intestine ([4]; 100% is the complete intestine length, substance 20 mg/kg, reference 91.7 ± 2.2): 96.6 ± 0.95%
LD50 ([5]; ip): 70 mg/kg
LD50 ([5]; iv): 11.8 mg/kg
LD50 ([5]; po): 1110 mg/kg
LD50 ([5]; sc): 295 mg/kg
mortality of untreated control calves compared with treated calves (in words) ([6]; bovine, in vivo): a statistically considerably higher number perish
reduction of diarrhea occurrence ([6]; calves, average 40 kg, 10 mg daily dose, 2 to 3 days, reference about 80% (n=66)): 40-50%
diarrhea occurrence (printed as: reduced ... even less than 4%) ([6]; calves, average 40 kg, 20 mg daily dose, 3 days, P<0.01, reference about 80% (n=66)): less than 4%
reduction of diarrhea (in words) ([6]; calves, 10 and 20 mg per diem, one to three days after birth): significant reduction of diarrhea with involved animals depending upon the dose applied
latent period up to the beginning of the diarrhea [7]: 127.3 ± 6.3 min
influence on passage of intestine content (in words) [8]: does not significantly influence the passage of intestine content
intestinal passage of carbo adsorbens, small intestines [8]: 60.1 ± 1.5%
changes in weight of dogs ([9]; both sexes, six months, p.o. 2, 10, 30 mg/kg): has not exhibited with doses of 2; 10; 30 mg/kg any extensive changes in the weight of dogs
harmfulness of the substance in the six months period ([9]; p.o., dose range up to 2 mg/kg): no proofs about any harmfulness of the substance
toxicity at the high doses (weight, behavior, mortality) ([9]; six months, p.o., two highest doses): a decrease in weight, defective behavior and mortality have occurred
toxic effect in hematological, biochemical and morphological indices ([9]; six months, p.o., two lower doses): No toxic effect in hematological, biochemical and morphological indices has been observed with the two lower doses
heart activity and psychomotoric changes ([9]; six months, p.o., two lower doses (exception)): minor changes in the heart activity, and particularly by influencing the pulse conductivity and further by psychomotoric unrest
antiulcerose / gastric cytoprotective effect [10]: antiulcerose effects with a marked gastric cytoprotective effect
reduction of adenylate cyclase activity [11]: a significant reduction of adenylate cyclase activity
hematological, biochemical and morphological indices or animal weight ([12]; p.o. 0.1, 1, 10 mg/kg): neither hematological, biochemical and morphological indices or the animal weight have not been considerably influenced
influence on behavior ([12]; p.o. 0.1, 1, 10 mg/kg): has not shown any influence on the behavior of animals
increase in weight ([12]; p.o., two highest doses): in some cases lower than average
locally anaesthetic effect ([13]; L. Benes et al 1969): exhibits the well-known locally anaesthetic effects
locally anaesthetic and spasmolytic effects ([13]; P. Svec et al 1976): locally anaesthetic and spasmolytic effects
locally anaesthetic activity at decreased pH ([13]; media with decreased pH value at the acid side, S. Stole et al 1978): maintenance of its locally anaesthetic activity even in media with decreased pH value at the acid side
retention of stomach content [14]: unchanged
LD50 ([15]; iv): 7.8 mg/kg
LD50 ([15]; sc): 73.2 mg/kg
mutation changes in reparative tests [16]: have not been observed
qualitative or quantitative mutations [16]: have not been observed
LD50 ([17]; ip): 75 mg/kg
LD50 ([17]; iv): 13.8 mg/kg
LD50 ([17]; po): 1030 mg/kg
LD50 ([17]; sc): 283 mg/kg
fetal weight, implantates, placenta and amniotic liquor ([18]; 0.21, 2.1, 8.4, 21, 42, 84 mg/kg): no changes in the amounts of fetal weight implantates, placenta and amniotio liquor were found
fetuses with palate fissure ([18]; only at highest dose of 84 mg/kg): less than 10%
LD50 ([19]; ip): 59 mg/kg
LD50 ([19]; po): 840 mg/kg
LD50 ([19]; sc): 128 mg/kg
occurrence of skeletal abnormalities [20]: the same as in the reference group

CN1C2CCC1CC(OC(=O)C(CO)c1ccccc1)C2 (stereo not shown) [atropin, reference compound]
intestinal passage of carbo adsorbens, complete intestine [4, 21]: 51.4 ± 2.6%
intestinal passage of carbo adsorbens, small intestines [8]: 46.3 ± 2.5%
